pIC50: −log10 of the molar value. Several values for one entry are separate records, joined by “and”; a condition that tells them apart may be missing. Equal values may be shown once.
How the values were obtained:
U251cx43-216 cells [1] = assay: Apoptosis, TUNEL assay; type: cell-based, human; conditions: U251cx43-216, 1 μM VP16, D2
Method: (§1) Cells (1 to 3×10^5) were seeded onto glass slides in 8-well plates overnight, and then treated with VP16 for 48 hours. Apoptotic cells were then analyzed with a TUNEL-based in situ cell death detection kit (Boehringer-Mannheim, Mannheim, Germany). Fluorescent cells were observed under a fluorescence microscope and viewed as positive cells. The experiment was repeated twice.
(§2) It was next determined whether the enhanced sensitivity to chemotherapeutic agents induced by over-expression of cx43 was associated with the increase of drug-induced apoptosis. Cells collected at various time points post-treatment with 1 μM VP16 were used for apoptosis assays. First, nuclear condensation, chromatin fragmentation and formation of apoptotic bodies were detected by Hoechst 33258 dye staining upon treatment with VP16. […] The results were further confirmed by both 1) TUNEL assay, which detects double- as well as single-stranded DNA breaks during apoptosis by labeling the free 3′-OH termini in an enzymatic reaction (terminal deoxynucleotidyl transferase), and annexin V assay, which detects the exposed phosphotidylserine during apoptosis.

U251N23 cells [2] = assay: Apoptosis, TUNEL assay; type: cell-based, human; conditions: U251N23, 1 μM VP16, D2
Method: as §1, §2

U251cx43-216 cells [3] = assay: Clonogenicity (cell survival) assay; type: cell-based, human
Method: (§3) The surviving cell fraction was determined by clonogenicity assay as previously described (Huang et al., J. Cell Biol. 133:211-220 (1996)). Cells were seeded at a density of 500 cells per 60 mm plate and incubated overnight and then treated with drugs; culture was then continued for 3 weeks. Clones were fixed in 4% formaldehyde-PBS and stained with Giemsa solution. Colonies containing more than 50 cells were counted and the fraction of surviving cells was calculated. The results represented the average of three separate experiments.
(§4) Values at OD 570 reflect the relative number of viable cells.

U251N23 cells [4] = assay: Clonogenicity (cell survival) assay; type: cell-based, human
Method: as §3, §4

U251N23 cells [5] = assay: Apoptosis, Hoechst dye stain; type: cell-based, human; conditions: U251N23, 1 μM VP16, D4
Method: The assay was performed as we previously described (Huang et al., Cell Death Differ. 5:96-106 (1998)). Briefly, cells were fixed in Carnoy's solution (methanol:glacial […]; 3:1) and stained with 5 μg/ml of bisbenzimide trihydrochloride (Hoechst 33258) for 20 min. The morphology of nuclei was then observed with a Zeiss (Thornwood, N.Y.) photomicroscope II. At least 500 nuclei in each cell line were counted. Experiments were repeated four times.
as §2

U251cx43-216 cells [6] = assay: MTT cell viability assay
U251cx43-216 cells [7] = assay: Cell-cycle distribution by FACScan; type: cell-based, human; conditions: U251cx43-216, VP16 1 × 10^−6 M
Method: (§5) Cell-cycle distribution was determined by flow cytometry as described previously (Huang et al., Int. J. Cancer 77:880-886 (1998)). Briefly, cells were seeded in 100 mm plates (5×10^5 per plate), incubated for 24 hours, and then treated with VP16 or vehicle. At days 1 and 2 of treatment, cells were collected, fixed in 70% ethanol and stained with propidium iodine. The DNA content of cells was then analyzed in a fluorescence cell sorter (FACSCalibur, Becton Dickinson, Mountain View, Calif.).
(§6) The possibility was assessed by treatment of the cells with VP16 for 24 and 48 hours, and cell-cycle distribution was then determined by FACScan. […] Although there was a slight decrease of S phase in cx43-transfected cells compared with control transfected cells at 24 hours after VP16 treatment, it was not statistically significant.

U251cx43-217 cells [8] = assay: Cell-cycle distribution by FACScan; type: cell-based, human; conditions: U251cx43-217, VP16 1 × 10^−6 M
Method: as §5, §6

U251N23 cells [9] = assay: Cell-cycle distribution by FACScan; type: cell-based, human; conditions: U251N23, VP16 1 × 10^−6 M
Method: as §5, §6

T98Gcx43-220 cells = assay: MTT cell viability assay; type: cell-based; conditions: Homo sapiens, 144 h, day 6 after treatment, T98Gcx43-220 (cx43-transfected)
Method: (§7) In vitro viability was determined by the 3-(4,5-dimethylthiazol-2yl)-2,5-diphenyltetrazolium bromide (MTT) colorimetric assay as described in (Huang et al., Cancer Res. 55:5054-5062 (1995)). Cells (1×10^3) were plated in triplicate in 96 well microplates overnight and treated with 5 different concentrations of VP16, Tax and DOX, respectively. […] Absorbance values at 570 nm were plotted as a measure of the relative number of cells. […] Both methods gave the identical results.
as §4

U251cx43-217 cells [10] = assay: MTT cell viability assay; type: cell-based; conditions: Homo sapiens, 144 h, day 6 after treatment, U251cx43-217 (cx43-transfected)
Method: as §7, §4

U251N23 cells [11] = assay: MTT cell viability assay; type: cell-based; conditions: Homo sapiens, 144 h, day 6 after treatment, U251N23 (control-transfected)
Method: as §7, §4

T98GN28 cells = assay: MTT cell viability assay; type: cell-based; conditions: Homo sapiens, 144 h, day 6 after treatment, T98GN28 (control-transfected)
Method: as §7, §4

U251N2 cells = assay: MTT cell viability assay; type: cell-based; conditions: Homo sapiens, 144 h, day 6 after treatment, U251N2 (control-transfected)
Method: as §7, §4

U251cx43-216 cells [12] = assay: Apoptosis, annexin V assay; type: cell-based, human
Method: (§8) Cells, treated or not VP16, were analyzed with the TACS Annexin V-FITC kit (Trevigen, Gaithersburg, Md.) according to manufacturer's instructions. Apoptosis was detected by the appearance of patches of fluorescence on the cell surface.
as §2

U251N23 cells [13] = assay: Apoptosis, annexin V assay; type: cell-based, human
Method: as §8, §2

COc1cc([C@@H]2c3cc4c(cc3[C@@H](O[C@@H]3O[C@@H]5CO[C@@H](C)O[C@H]5[C@H](O)[C@H]3O)[C@H]3COC(=O)[C@H]23)OCO4)cc(OC)c1O [VP16, Etoposide]
Percentage of apoptotic cells, TUNNEL assay (U251cx43-216 cells [1]): 13.3 +/− 4.5% | Percentage of apoptotic cells, TUNNEL assay (U251N23 cells [2]): 1.6 +/− 2.3% | Colony formation (colonies counted) (U251cx43-216 cells [3]; U251cx43-216, 1 × 10^−7, 3 weeks): 3 +/− 1 | Colony formation (colonies counted) (U251cx43-216 cells [3]; U251cx43-216, 4 × 10^−6, 3 weeks): 2 +/− 1 | Colony formation (colonies counted) (U251cx43-216 cells [3]; U251cx43-216, 4 × 10^−7, 3 weeks): 44 +/− 5 | Colony formation (colonies counted) (U251N23 cells [4]; U251N23, 1 × 10^−7, 3 weeks): 36 +/− 1 | Colony formation (colonies counted) (U251N23 cells [4]; U251N23, 4 × 10^−6, 3 weeks): 9 +/− 1 | Colony formation (colonies counted) (U251N23 cells [4]; U251N23, 4 × 10^−7, 3 weeks): 129 +/− 16 | Percentage of apoptotic cells, Hoechst stain (U251N23 cells [5]): 8.8% and 8.8 +/− 2.4% | pIC50 (U251cx43-216 cells [6]; Homo sapiens, 144 h): 6.41 | level of toxicity (measured as IC50) in U251cx43-216 relative to U251N23 (U251cx43-216 cells [6]; MTT assay, higher in cx43-transfected cells): about 2 fold | Cell cycle distribution, G1 phase (U251cx43-216 cells [7]; day 1): 10.95% | Cell cycle distribution, G2 phase (U251cx43-216 cells [7]; day 1): 80.57% | Cell cycle distribution, S phase (U251cx43-216 cells [7]; day 1): 8.48% | Cell cycle distribution, G1 phase (U251cx43-216 cells [7]; day 2): 8.44% | Cell cycle distribution, G2 phase (U251cx43-216 cells [7]; day 2): 90.81% | Cell cycle distribution, S phase (U251cx43-216 cells [7]; day 2): 0.75% | Cell cycle distribution, G1 phase (U251cx43-217 cells [8]; day 1): 12.05% | Cell cycle distribution, G2 phase (U251cx43-217 cells [8]; day 1): 77.84% | Cell cycle distribution, S phase (U251cx43-217 cells [8]; day 1): 10.11% | Cell cycle distribution, G1 phase (U251cx43-217 cells [8]; day 2): 11.39% | Cell cycle distribution, G2 phase (U251cx43-217 cells [8]; day 2): 88.61% | Cell cycle distribution, S phase (U251cx43-217 cells [8]; day 2): 0% | Cell cycle distribution, G1 phase (U251N23 cells [9]; day 1): 7.37% | Cell cycle distribution, G2 phase (U251N23 cells [9]; day 1): 81.49% | Cell cycle distribution, S phase (U251N23 cells [9]; day 1): 11.14% | Cell cycle distribution, G1 phase (U251N23 cells [9]; day 2): 5.78% | Cell cycle distribution, G2 phase (U251N23 cells [9]; day 2): 94.22% | Cell cycle distribution, S phase (U251N23 cells [9]; day 2): 0% | pIC50 (T98Gcx43-220 cells): 6.12 | pIC50 (U251cx43-217 cells [10]): 6.48 | pIC50 (U251N23 cells [11]): 6.07 | pIC50 (T98GN28 cells): 5.87 | pIC50 (U251N2 cells): 6.10 | Percentage of apoptotic cells, annexin stain (U251cx43-216 cells [12]; U251cx43-216, 1 μM VP16, D2): 24.5 +/− 0.7% | Percentage of apoptotic cells, annexin stain (U251cx43-216 cells [12]; U251cx43-216, 1 μM VP16, D4): 42.0 +/− 5.6% | Percentage of apoptotic cells, annexin stain (U251N23 cells [13]; U251N23, 1 μM VP16, D2): 5.5 +/− 0.7% | Percentage of apoptotic cells, annexin stain (U251N23 cells [13]; U251N23, 1 μM VP16, D4): 11.5 +/− 2.1%

Source: patent publication US20120045501A1, “CONNEXIN ENHANCES CHEMOTHERAPY-INCLUDED APOPTOSIS IN HUMAN CANCER CELLS INHIBITING TUMOR CELL PROLIFERATION” (Northwest Hospital, priority 2001, published 2012)
